Where two headings read alike, the source gives them in different places.
Legend:
KRAS-WT = KRAS-WT (Homo sapiens, UniProt P01116); experiment: SOS-catalyzed nucleotide exchange assay (Procedure A, TR-FRET), KRAS-WT; format: biochemical; details: nucleotide exchange, read-out: KRAS WT GNE IC50
Method in brief: (§1)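 TR-FRET 520/495 nm ratio read after SOS-driven exchange of Bodipy-GDP for unlabeled GTP (3 mM) on biotinylated RAS bound to Tb-streptavidin. There was a 60 min compound preincubation, RT. Final RAS/SOS and reaction times: G12C 3 nM/40 nM; WT 1 nM/40 nM; NRAS 1.25 nM/40 nM, each 60 min. G12V was 1.25 nM/160 nM, 90 min.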

[1] = target: KRAS-G12C (C51S/C80L/C118S) (Homo sapiens, UniProt P01116, C118S/C51S/C80L/G12C); experiment: SOS-catalyzed nucleotide exchange assay (Procedure A, TR-FRET), KRAS-G12C; format: biochemical; details: nucleotide exchange, Procedure A; read-out: KRAS G12C GNE IC50
Method in brief: as §1

KRAS-G12D = KRAS-G12D (Homo sapiens, UniProt P01116, G12D); experiment: SOS-catalyzed nucleotide exchange assay (Procedure A, TR-FRET), KRAS-G12D; format: biochemical; details: nucleotide exchange, read-out: KRAS G12D GNE IC50
Method in brief: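 Signal ratio (520/495 nm, excitation 340 nm) reports Bodipy-GDP retention on biotinylated RAS after SOS-catalyzed exchange with 3 mM GTP. SOS was 40 nM, except 160 nM for G12V. Room-temperature exchange lasted 60 min (90 min for G12V), following a 60 min compound preincubation.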

KRAS-G12V = KRAS-G12V (Homo sapiens, UniProt P01116, G12V); experiment: SOS-catalyzed nucleotide exchange assay (Procedure A, TR-FRET), KRAS-G12V; format: biochemical; details: nucleotide exchange, read-out: KRAS G12V GNE IC50
Method in brief: as §1

KRAS-G13D = KRAS-G13D (Homo sapiens, UniProt P01116, G13D); experiment: SOS-catalyzed nucleotide exchange assay (Procedure A, TR-FRET), KRAS-G13D; format: biochemical; details: nucleotide exchange, Procedure A; read-out: KRAS G13D GNE IC50
PANC08.13 cells = experiment: Cellular phospho-ERK assay, PANC08.13 cells (homozygous KRAS-G12D); format: cell-based; details: Homo sapiens, read-out: PANC-08.13 pERK IC50
Protocol: Procedure for Cellular Phospho-ERK Assay in KRAS Wild Type and Mutant (G12D, G12V) Cell Lines
MKN-1 cells (JCRB JCRB0252) containing amplified wild-type KRAS, were cultured in growth medium that contains RPMI 1640-GlutaMAX™-I (ThermoFisher Scientific 61870) containing 10% heat inactivated fetal bovine serum (ThermoFisher Scientific 10091148), 1 mM sodium pyruvate and 10 mM HEPES. PANC08.13 cells (ATCC® CRL-2551™), containing homozygous KRAS-G12D activating mutation, were cultured in growth medium made of RPMI1640-GlutaMAX™-I (ThermoFisher Scientific 61870) containing 15% heat inactivated fetal bovine serum (ThermoFisher Scientific 10091148)). AsPC-1 cells (ATCC® CRL-1682™), containing homozygous KRAS-G12D activating mutation, were cultured in T150 flask in growth medium (RPMI medium 1640-GlutaMAX™-I (ThermoFisher Scientific 61870) containing 10% fetal bovine serum (ThermoFisher Scientific 10091148)). SW620 cells (ATCC® […]), containing homozygous KRAS-G12V activating mutation, were cultured in growth medium that contains RPMI 1640-GlutaMAX™-I (ThermoFisher Scientific 61870) containing 10% heat inactivated fetal bovine serum (ThermoFisher Scientific 10091148).
Cells for the assay were harvested in growth medium after TrypLE (ThermoFisher scientific 12604021) digestion and were seeded in a 384-well collagen coated cell culture plate (Corning 356702) at a density of 10,000-15,000 cells/20 μL/well, and incubated at 37° C., 5% CO2 overnight. The compound (with 10 mM stock concentration) dose-response titrations were prepared [30 μM final ERK detection assay concentration and 1:3 dilutions, 10-point dose response] and appropriate amounts (270 nL) of test compounds were dispensed in a 384-well intermediate plate using an Echo 550 liquid handler. 30 μL/well of RPMI medium 1640-GlutaMAX™—I was added to the intermediate plate and the contents of the intermediate plate (10 μL/well) were then transferred to the 384-well collagen coated cell culture plate, which was incubated at 37° C., 5% CO2 for 2 hours. After removal of medium from the collagen coated cell culture plate, cells were lysed in lysis buffer from Alpha SureFire® Ultra™ Multiplex p-ERK and total ERK assay kit (PerkinElmer MPSU-PTERK) containing Halt™ Protease and Phosphatase inhibitor cocktail (ThermoFisher Scientific 78446) at room temperature with constant shaking at 300 rpm for 30 minutes. The cell lysates were then transferred to an OptiPlate-384 plate (PerkinElmer 6005620), and the phosphorylation of ERK (p-ERK) and total ERK levels were detected by Alpha SureFire® Ultra™ Multiplex p-EEK kit and total ERK assay kit (PerkinElmer MPSU-PTERK) following the manufacturer's protocol. Assay plates were read on a En Vision Multimode Plate Reader (PerkinElmer), and the ratio of p-ERK vs. total ERK in each well was used as the final readout. Dose response curves were analyzed using a 4-parameter logistic model to calculate IC50 values using Spotfire software.

AsPC-1 cells = experiment: Cellular phospho-ERK assay, AsPC-1 cells (homozygous KRAS-G12D); format: cell-based; details: Homo sapiens, ASPC1, 2 h, KRAS-G12D, 2 hours, read-out: AsPC1 pERK IC50
Method in brief: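 Cells were seeded overnight, then treated 2 h at 37° C with compound in a 10-point, 1:3 titration from 30 μM top final concentration. Lysates were assayed by AlphaLISA SureFire Ultra for p-ERK and total ERK. IC50 came from a 4-parameter logistic fit of the p-ERK/total ERK ratio.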

[2] = PANC-08-13, 2 hours compound incubation

KRAS-WT, sequence (P01116 with tags, fused parts or gaps isoform P01116-2): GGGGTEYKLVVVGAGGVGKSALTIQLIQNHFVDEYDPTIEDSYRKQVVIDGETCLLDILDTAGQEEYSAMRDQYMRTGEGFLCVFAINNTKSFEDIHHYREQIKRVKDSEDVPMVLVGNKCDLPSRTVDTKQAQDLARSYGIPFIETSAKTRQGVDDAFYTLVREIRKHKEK
KRAS-G13D, sequence (P01116 with tags, fused parts or gaps isoform P01116-2 G13D): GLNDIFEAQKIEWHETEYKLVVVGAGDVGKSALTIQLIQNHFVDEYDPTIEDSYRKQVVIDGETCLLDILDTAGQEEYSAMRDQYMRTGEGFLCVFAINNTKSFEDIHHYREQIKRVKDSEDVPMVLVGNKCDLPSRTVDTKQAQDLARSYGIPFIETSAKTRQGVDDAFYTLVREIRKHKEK
KRAS-G12V, sequence (P01116 with tags, fused parts or gaps isoform P01116-2 G12V): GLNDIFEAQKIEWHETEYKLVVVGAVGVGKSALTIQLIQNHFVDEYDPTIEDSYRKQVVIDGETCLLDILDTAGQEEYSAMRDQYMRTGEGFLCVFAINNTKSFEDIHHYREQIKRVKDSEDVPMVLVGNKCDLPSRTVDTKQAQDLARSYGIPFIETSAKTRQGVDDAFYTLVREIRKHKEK
KRAS-G12C (C51S/C80L/C118S), sequence (P01116 with tags, fused parts or gaps isoform P01116-2 G12C/C51S/C80L/C118S): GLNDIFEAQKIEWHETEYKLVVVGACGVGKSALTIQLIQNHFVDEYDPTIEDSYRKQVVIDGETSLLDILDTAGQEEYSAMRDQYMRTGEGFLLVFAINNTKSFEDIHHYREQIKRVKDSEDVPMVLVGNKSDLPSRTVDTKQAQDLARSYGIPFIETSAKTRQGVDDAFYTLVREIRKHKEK
KRAS-G12D, sequence (P01116 with tags, fused parts or gaps isoform P01116-2 G12D): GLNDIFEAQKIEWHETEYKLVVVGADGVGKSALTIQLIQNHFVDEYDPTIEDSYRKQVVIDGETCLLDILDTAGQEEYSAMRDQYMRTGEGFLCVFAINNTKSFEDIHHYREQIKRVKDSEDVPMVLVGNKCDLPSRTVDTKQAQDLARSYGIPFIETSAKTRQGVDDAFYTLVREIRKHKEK

IC50 (KRAS-WT)	IC50 [1]	IC50 (KRAS-G12D)	IC50 (KRAS-G12V)	IC50 (KRAS-G13D)	IC50 (PANC08.13 cells; PANC-08-13, KRAS-G12D, 2 hours)	IC50 (AsPC-1 cells)	IC50 (PANC08.13 cells; [2])	Structure (SMILES)
158 nM	41.1 nM	84.2 nM	125 nM	105 nM	240 nM	1200 nM	–	Cn1c2nc(OC[C@@]34CCCN3C[C@H](F)C4)nc(N3CCOC[C@@](C)(O)C3)c2c2ccnc(-c3c(C(F)F)c(Cl)cc4[nH]ncc34)c21 (single isomer, unassigned) [Ex-11]
330 nM	125 nM	164 nM	533 nM	150 nM	268 nM	–	–	CCc1c(C)cc2[nH]ncc2c1-c1nccc2c1sc1nc(OC[C@@]34CCCN3C[C@H](F)C4)nc(N3CCOC[C@@](C)(O)C3)c12 [Ex-36, (6S)-4-(8-(5-ethyl-6-methyl-1H-indazol-4-yl)-2-(((2R,7aS)-2-fluorotetrahydro-1H-pyrrolizin-7a(5H)-yl)methoxy)pyrido[4′,3′:4,5]thieno[2,3-d]pyrimidin-4-yl)-6-methyl-1,4-oxazepan-6-ol]
494 nM	175 nM	261 nM	440 nM	1090 nM	900 nM	–	–	Cc1cc2[nH]ncc2c(-c2nccc3c2sc2nc(OC[C@@]45CCCN4C[C@H](F)C5)nc(N4CCOC[C@@](C)(O)C4)c23)c1C#N [Ex-34, 4-(2-(((2R,7aS)-2-fluorotetrahydro-1H-pyrrolizin-7a(5H)-yl)methoxy)-4-((S)-6-hydroxy-6-methyl-1,4-oxazepan-4-yl)pyrido[4′,3′:4,5]thieno[2,3-d]pyrimidin-8-yl)-6-methyl-1H-indazole-5-carbonitrile]
822 nM	96.7 nM	591 nM	194 nM	668 nM	–	–	812 nM	Cc1cc2[nH]ncc2c(-c2nccc3c2sc2nc(OC[C@@]45CCCN4C[C@H](F)C5)nc(NC4COC4)c23)c1C(F)(F)F [Ex-184, 2-(((2R,7aS)-2-fluoro-tetrahydro-1H-pyrrolizin-7a(5H)-yl)methoxy)-8-(6-methyl-5-(trifluorometh-yl)-1H-indazol-4-yl)-N-(oxetan-3-yl)pyrido [4′,3′:4,5]thieno[2,3-d] pyrimidin-4-amine]
1870 nM	743 nM	1210 nM	2120 nM	1430 nM	–	–	974 nM	Cc1cc2[nH]nc(C#N)c2c(-c2nccc3c2sc2nc(OC[C@@]45CCCN4C[C@H](F)C5)nc(N4CCOC[C@@](C)(O)C4)c23)c1C(F)(F)F [Ex-150, 4-(2-(((2R,7aS)-2-fluorotetrahydro-1H-pyrrolizin-7a(5H)-yl)methoxy)-4-((S)-6-hydroxy-6-methyl-1,4-oxazepan-4-yl)pyrido[4′,3′:4,5]thieno[2,3-d]pyrimidin-8-yl)-6-methyl-5-(trifluoromethyl)-1H-indazole-3-carbonitrile]
973 nM	275 nM	629 nM	934 nM	541 nM	2040 nM	–	–	Cc1cc2c3c(N4CCOC[C@@](C)(O)C4)nc(OC[C@@]45CCCN4C[C@H](F)C5)nc3n(C)c2c(-c2c(C(F)(F)F)c(C)cc3[nH]ncc23)n1 (single isomer, unassigned) [Ex-28]
5930 nM	584 nM	2150 nM	2960 nM	2650 nM	6060 nM	–	–	Cn1c2nc(OC[C@@]34CCCN3C[C@H](F)C4)nc(N3CCOC[C@@](C)(O)C3)c2c2ccnc(-c3c(C(F)F)c(Cl)cc4[nH]nc(C#N)c34)c21 (single isomer, unassigned) [Ex-12]
250 nM	47.1 nM	120 nM	130 nM	110 nM	–	–	279 nM	C[C@@]1(O)COCCN(c2nc(OC[C@@]34CCCN3C[C@H](F)C4)nc3sc4c(-c5c(C(F)F)c(Cl)cc6[nH]ncc56)nccc4c23)C1 [Ex-133, (6S)-4-(8-(6-chloro-5-(difluoromethyl)-1H-indazol-4-yl)-2-(((2R,7aS)-2-fluoro-tetrahydro-1H-pyr-rolizin-7a(5H)-yl)-methoxy)pyrido [4′,3′:4,5]thieno [2,3-d]pyrimidin-4-yl)-6-methyl-1,4-oxazepan-6-ol]
725 nM	78 nM	2270 nM	428 nM	813 nM	–	–	3930 nM	Cc1cc2[nH]ncc2c(-c2nccc3c2sc2nc(OC[C@@]45CCCN4C[C@H](F)C5)nc(N4CCOC(CO)C4)c23)c1C(F)(F)F (stereo partly drawn) [Ex-180, (4-(2-(((2R,7aS)-2-fluoro-tetrahydro-1H-pyrrolizin-7a(5H)-yl)methoxy)-8-(6-methyl-5-(trifluorometh-yl)-1H-indazol-4-yl)pyrido [4′,3′:4,5]thieno[2,3-d]pyr-imidin-4-yl)morpholin-2-yl)methanol]
2250 nM	1190 nM	1500 nM	1650 nM	2090 nM	1430 nM	–	–	Cc1cc2[nH]nc(C)c2c(-c2nccc3c4c(N5CCOC[C@@](C)(O)C5)nc(OC[C@@]56CCCN5C[C@H](F)C6)nc4n(C)c23)c1C(F)F (single isomer, unassigned) [Ex-8]
3070 nM	1480 nM	1450 nM	1490 nM	2450 nM	1800 nM	–	–	Cc1cc(-c2nccc3c2sc2nc(OC[C@@]45CCCN4C[C@H](F)C5)nc(N4CCOC[C@@](C)(O)C4)c23)c2cn[nH]c2c1 [Ex-37, (S)-4-(2-(((2R,7aS)-2-fluorotetrahydro-1H-pyrrolizin-7a(5H)-yl)methoxy)-8-(6-methyl-1H-indazol-4-yl)pyrido[4′,3′:4,5]thieno[2,3-d]pyrimidin-4-yl)-6-methyl-1,4-oxazepan-6-ol]

Structure (SMILES)	IC50 (KRAS-WT)	IC50 [1]	IC50 (KRAS-G12D)	IC50 (KRAS-G12V)	IC50 (KRAS-G13D)	IC50 (PANC08.13 cells; PANC-08-13, KRAS-G12D, 2 hours)	IC50 (AsPC-1 cells)	IC50 (PANC08.13 cells; [2])
Cc1cc2[nH]ncc2c(-c2nccc3c4c(N5CC6CCC(F)(C5)N6)nc(OC[C@@]56CCCN5C[C@H](F)C6)nc4n(C)c23)c1C(F)(F)F (single isomer, unassigned) [Ex-22]	975 nM	189 nM	2440 nM	409 nM	456 nM	3510 nM	–	–

Source: patent publication US20260176289A1, “SMALL MOLECULE INHIBITORS OF KRAS PROTEINS” (Merck Sharp & Dohme LLC, priority 2022, published 2026)
